# Laboratory results from US8192962B2, “Processes for detecting toxic substances” (Daikin Industries, Ltd., priority 2001, dated 2012).
# System: DNA repair protein genes
# Assay: DNA chip mRNA expression in yeast, DNA repair protein genes (Table 3)
# Type: cell-based, Saccharomyces cerevisiae S288C
# Details: incubated two hours, concentrations as in the 1st table
# Procedure, shortened: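 Untreated cultures served as reference for log-phase S288C yeast given a growth-inhibiting, non-lethal toxicant dose for 2 h at 25° C. in YPD. Gene expression was measured on a whole-genome DNA chip from Cy3/Cy5-labeled cDNA.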
smiles,measurement,setting,value
"[Cl][Hg][Cl] [(3), HgCl2]",The level of expressed mRNA in the presence of chemical substance/The level of expressed mRNA in the absence of chemical substance,yeast gene YAL015C,1.7
same,The level of expressed mRNA in the presence of chemical substance/The level of expressed mRNA in the absence of chemical substance,yeast gene YAR007C,0.8
same,The level of expressed mRNA in the presence of chemical substance/The level of expressed mRNA in the absence of chemical substance,yeast gene YBL019W,0.7
same,The level of expressed mRNA in the presence of chemical substance/The level of expressed mRNA in the absence of chemical substance,yeast gene YBR073W,0.9
same,The level of expressed mRNA in the presence of chemical substance/The level of expressed mRNA in the absence of chemical substance,yeast gene YBR272C,1.3
same,The level of expressed mRNA in the presence of chemical substance/The level of expressed mRNA in the absence of chemical substance,yeast gene YCR014C,0.8
same,The level of expressed mRNA in the presence of chemical substance/The level of expressed mRNA in the absence of chemical substance,yeast gene YDL017W,1.2
same,The level of expressed mRNA in the presence of chemical substance/The level of expressed mRNA in the absence of chemical substance,yeast gene YDL059C,1.4
same,The level of expressed mRNA in the presence of chemical substance/The level of expressed mRNA in the absence of chemical substance,yeast gene YDL200C,1.2
same,The level of expressed mRNA in the presence of chemical substance/The level of expressed mRNA in the absence of chemical substance,yeast gene YDR054C,0.7
same,The level of expressed mRNA in the presence of chemical substance/The level of expressed mRNA in the absence of chemical substance,yeast gene YDR369C,2.4
same,The level of expressed mRNA in the presence of chemical substance/The level of expressed mRNA in the absence of chemical substance,yeast gene YEL019C,0.3
same,The level of expressed mRNA in the presence of chemical substance/The level of expressed mRNA in the absence of chemical substance,yeast gene YEL037C,0.9
same,The level of expressed mRNA in the presence of chemical substance/The level of expressed mRNA in the absence of chemical substance,yeast gene YER162C,1.0
same,The level of expressed mRNA in the presence of chemical substance/The level of expressed mRNA in the absence of chemical substance,yeast gene YFL014W,5.7
same,The level of expressed mRNA in the presence of chemical substance/The level of expressed mRNA in the absence of chemical substance,yeast gene YGL058W,0.6
same,The level of expressed mRNA in the presence of chemical substance/The level of expressed mRNA in the absence of chemical substance,yeast gene YGL091C,1.0
same,The level of expressed mRNA in the presence of chemical substance/The level of expressed mRNA in the absence of chemical substance,yeast gene YGL127C,1.3
same,The level of expressed mRNA in the presence of chemical substance/The level of expressed mRNA in the absence of chemical substance,yeast gene YGL163C,0.6
same,The level of expressed mRNA in the presence of chemical substance/The level of expressed mRNA in the absence of chemical substance,yeast gene YGL249W,0.5
same,The level of expressed mRNA in the presence of chemical substance/The level of expressed mRNA in the absence of chemical substance,yeast gene YGR180C,1.9
same,The level of expressed mRNA in the presence of chemical substance/The level of expressed mRNA in the absence of chemical substance,yeast gene YGR231C,0.7
same,The level of expressed mRNA in the presence of chemical substance/The level of expressed mRNA in the absence of chemical substance,yeast gene YGR258C,0.7
same,The level of expressed mRNA in the presence of chemical substance/The level of expressed mRNA in the absence of chemical substance,yeast gene YHR164C,0.9
same,The level of expressed mRNA in the presence of chemical substance/The level of expressed mRNA in the absence of chemical substance,yeast gene YIL036W,1.3
same,The level of expressed mRNA in the presence of chemical substance/The level of expressed mRNA in the absence of chemical substance,yeast gene YIL072W,1.1
same,The level of expressed mRNA in the presence of chemical substance/The level of expressed mRNA in the absence of chemical substance,yeast gene YIL143C,1.1
same,The level of expressed mRNA in the presence of chemical substance/The level of expressed mRNA in the absence of chemical substance,yeast gene YIL153W,1.3
same,The level of expressed mRNA in the presence of chemical substance/The level of expressed mRNA in the absence of chemical substance,yeast gene YIR002C,0.5
same,The level of expressed mRNA in the presence of chemical substance/The level of expressed mRNA in the absence of chemical substance,yeast gene YJL026W,2.9
same,The level of expressed mRNA in the presence of chemical substance/The level of expressed mRNA in the absence of chemical substance,yeast gene YJR046W,1.2
same,The level of expressed mRNA in the presence of chemical substance/The level of expressed mRNA in the absence of chemical substance,yeast gene YJR052W,1.1
same,The level of expressed mRNA in the presence of chemical substance/The level of expressed mRNA in the absence of chemical substance,yeast gene YKL145W,1.2
same,The level of expressed mRNA in the presence of chemical substance/The level of expressed mRNA in the absence of chemical substance,yeast gene YLR103C,1.1
same,The level of expressed mRNA in the presence of chemical substance/The level of expressed mRNA in the absence of chemical substance,yeast gene YLR233C,2.0
same,The level of expressed mRNA in the presence of chemical substance/The level of expressed mRNA in the absence of chemical substance,yeast gene YLR288C,1.6
same,The level of expressed mRNA in the presence of chemical substance/The level of expressed mRNA in the absence of chemical substance,yeast gene YML032C,1.1
same,The level of expressed mRNA in the presence of chemical substance/The level of expressed mRNA in the absence of chemical substance,yeast gene YML058W,5.8
same,The level of expressed mRNA in the presence of chemical substance/The level of expressed mRNA in the absence of chemical substance,yeast gene YMR035W,1.5
same,The level of expressed mRNA in the presence of chemical substance/The level of expressed mRNA in the absence of chemical substance,yeast gene YMR072W,1.4
same,The level of expressed mRNA in the presence of chemical substance/The level of expressed mRNA in the absence of chemical substance,yeast gene YMR096W,1.1
same,The level of expressed mRNA in the presence of chemical substance/The level of expressed mRNA in the absence of chemical substance,yeast gene YMR284W,0.5
same,The level of expressed mRNA in the presence of chemical substance/The level of expressed mRNA in the absence of chemical substance,yeast gene YNL213C,0.9
same,The level of expressed mRNA in the presence of chemical substance/The level of expressed mRNA in the absence of chemical substance,yeast gene YNL250W,0.8
same,The level of expressed mRNA in the presence of chemical substance/The level of expressed mRNA in the absence of chemical substance,yeast gene YNL261W,0.6
same,The level of expressed mRNA in the presence of chemical substance/The level of expressed mRNA in the absence of chemical substance,yeast gene YNL312W,1.6
same,The level of expressed mRNA in the presence of chemical substance/The level of expressed mRNA in the absence of chemical substance,yeast gene YOL043C,0.8
same,The level of expressed mRNA in the presence of chemical substance/The level of expressed mRNA in the absence of chemical substance,yeast gene YOR005C,1.0
same,The level of expressed mRNA in the presence of chemical substance/The level of expressed mRNA in the absence of chemical substance,yeast gene YOR386W,1.3
same,The level of expressed mRNA in the presence of chemical substance/The level of expressed mRNA in the absence of chemical substance,yeast gene YPL022W,0.7
same,The level of expressed mRNA in the presence of chemical substance/The level of expressed mRNA in the absence of chemical substance,yeast gene YPL164C,1.1
same,The level of expressed mRNA in the presence of chemical substance/The level of expressed mRNA in the absence of chemical substance,yeast gene YPL194W,0.4
same,The level of expressed mRNA in the presence of chemical substance/The level of expressed mRNA in the absence of chemical substance,yeast gene YPR025C,0.6
